Data as given in ChEMBL document CHEMBL3396992, “Synthesis and biological evaluation of pyrazolylthiazole carboxylic acids as potent anti-inflammatory-antimicrobial agents” (2015).
≈ marks a conversion by molar mass, not a printed value. Calls of active or inactive are those of the source. No cut-off for these calls is given here.

What was measured:
Bacillus subtilis [1] = test: Antimicrobial activity against Bacillus subtilis MTCC 121 assessed as growth inhibition at 4 mg/ml after 24 hrs by agar well diffusion method; format: functional; details: for zone of inhibition at 4000 µg/mL: MTCC 121, 24 h, read-out: DIZ
Rattus norvegicus [2] = test: Antiinflammatory activity against carrageenan-induced paw edema male Wistar albino rat at 50 mg/kg, ip administered 30 mins prior to carrageenan-challenge measured after 1 hr relative to control; format: functional; details: route intraperitoneal
Rattus norvegicus [3] = test: Antiinflammatory activity against carrageenan-induced paw edema male Wistar albino rat assessed as edema volume at 50 mg/kg, ip administered 30 mins prior to carrageenan-challenge measured after 2 hrs (reference value: 1.21 +/- 0.16 mL); format: functional; details: route intraperitoneal
Rattus norvegicus [4] = test: Antiinflammatory activity against carrageenan-induced paw edema male Wistar albino rat at 50 mg/kg, ip administered 30 mins prior to carrageenan-challenge measured after 4 hrs relative to control; format: functional; details: route intraperitoneal
Rattus norvegicus [5] = test: Antiinflammatory activity against carrageenan-induced paw edema male Wistar albino rat assessed as edema volume at 50 mg/kg, ip administered 30 mins prior to carrageenan-challenge measured after 3 hrs (reference value: 1.73 +/- 0.09 mL); format: functional; details: route intraperitoneal
Staphylococcus aureus [6] = test: Antimicrobial activity against Staphylococcus aureus MTCC 96 assessed as growth inhibition after 24 hrs by agar well diffusion method; format: functional
Saccharomyces cerevisiae [7] = test: Antimicrobial activity against Saccharomyces cerevisiae MTCC 170 assessed as growth inhibition after 24 hrs by agar well diffusion method; format: functional
Pseudomonas aeruginosa = details: MTCC 741, 4 mg/ml
Description: Antimicrobial activity against Pseudomonas aeruginosa MTCC 741 assessed as growth inhibition at 4 mg/ml after 24 hrs by agar well diffusion method

Candida albicans [8] = test: Antimicrobial activity against Candida albicans MTCC 3017 assessed as growth inhibition at 4 mg/ml after 24 hrs by agar well diffusion method; format: functional; details: MTCC 3017, 24 h, read-out: DIZ
Escherichia coli = test: Antimicrobial activity against Escherichia coli MTCC 1652 assessed as growth inhibition at 4 mg/ml after 24 hrs by agar well diffusion method; format: functional, organism-based
Candida albicans [9] = test: Antimicrobial activity against Candida albicans MTCC 3017 assessed as growth inhibition after 24 hrs by agar well diffusion method; format: functional; details: MTCC 3017, 24 h
Rattus norvegicus [10] = test: Antiinflammatory activity against carrageenan-induced paw edema male Wistar albino rat at 50 mg/kg, ip administered 30 mins prior to carrageenan-challenge measured after 2 hrs relative to control; format: functional; details: route intraperitoneal
Rattus norvegicus [11] = test: Antiinflammatory activity against carrageenan-induced paw edema male Wistar albino rat assessed as edema volume at 50 mg/kg, po administered 30 mins prior to carrageenan-challenge measured after 1 hr (reference value: 1.11 +/- 0.12 mL); format: functional
Bacillus subtilis [12] = test: Antimicrobial activity against Bacillus subtilis MTCC 121 assessed as growth inhibition after 24 hrs by agar well diffusion method; format: functional
Rattus norvegicus [13] = test: Antiinflammatory activity against carrageenan-induced paw edema male Wistar albino rat assessed as edema volume at 50 mg/kg, ip administered 30 mins prior to carrageenan-challenge measured after 4 hrs (reference value: 1.88 +/- 0.20 mL); format: functional; details: route intraperitoneal
Rattus norvegicus [14] = test: Antiinflammatory activity against carrageenan-induced paw edema male Wistar albino rat at 50 mg/kg, ip administered 30 mins prior to carrageenan-challenge measured after 3 hrs relative to control; format: functional; details: route intraperitoneal
Staphylococcus aureus [15] = test: Antimicrobial activity against Staphylococcus aureus MTCC 96 assessed as growth inhibition at 4 mg/ml after 24 hrs by agar well diffusion method; format: functional; details: for zone of inhibition at 4000 µg/mL: MTCC 96, 24 h, read-out: DIZ
Saccharomyces cerevisiae [16] = test: Antimicrobial activity against Saccharomyces cerevisiae MTCC 170 assessed as growth inhibition at 4 mg/ml after 24 hrs by agar well diffusion method; format: functional; details: for zone of inhibition at 4000 µg/mL: MTCC 170, 24 h, read-out: DIZ

Row | Structure (SMILES) | Activity (Rattus norvegicus [2]) | Activity (Rattus norvegicus [3]) | Activity (Rattus norvegicus [4]) | Activity (Rattus norvegicus [5]) | MIC (Staphylococcus aureus [6]) | DIZ (Pseudomonas aeruginosa) | zone of inhibition at 4000 µg/mL (Candida albicans [8]) | diameter of the inhibition zone (DIZ) (Escherichia coli) | MIC (Candida albicans [9]) | Activity (Rattus norvegicus [10]) | Activity (Rattus norvegicus [11]) | Activity (Rattus norvegicus [13]) | Activity (Rattus norvegicus [14]) | diameter of the inhibition zone (DIZ) (Staphylococcus aureus [15]) | zone of inhibition at 4000 µg/mL (Bacillus subtilis [1]) | MIC (Staphylococcus aureus [6]; MTCC 96, 24 h) | MIC (Saccharomyces cerevisiae [7]; MTCC 170, 24 h) | MIC (Bacillus subtilis [12]; MTCC 121, 24 h) | zone of inhibition at 4000 µg/mL (Staphylococcus aureus [15]) | zone of inhibition at 4000 µg/mL (Saccharomyces cerevisiae [16]) | further results
1 | CCOC(=O)c1sc(-c2cn(-c3ccccc3)nc2-c2ccc(F)cc2)nc1-c1ccccc1 | 76.57% | 0.32 mL | 76.06% | 0.33 mL | inactive | inactive | 16.6 mm | inactive | 50 µg/mL (≈ 106 µM) | 73.55% | 0.26 mL | 0.45 mL | 80.92% | inactive | – | – | – | – | – | – | diameter of the inhibition zone (DIZ) (Bacillus subtilis [1]): inactive; MIC (Saccharomyces cerevisiae [7]): inactive; MIC (Bacillus subtilis [12]): inactive; diameter of the inhibition zone (DIZ) (Saccharomyces cerevisiae [16]): inactive
2 | O=C(O)c1sc(-c2cn(-c3ccccc3)nc2-c2ccc(F)cc2)nc1-c1ccc(Cl)cc1 | 70.27% | 0.64 mL | 80.31% | 0.75 mL | – | inactive | 20.6 mm | inactive | 25 µg/mL (≈ 52.5 µM) | 47.1% | 0.33 mL | 0.37 mL | 56.14% | – | 18.3 mm | 25 µg/mL (≈ 52.5 µM) | 25 µg/mL (≈ 52.5 µM) | 25 µg/mL (≈ 52.5 µM) | 21.6 mm | 20.6 mm | –
3 | O=C(O)c1sc(-c2cn(-c3ccccc3)nc2-c2ccccc2)nc1-c1ccc(Cl)cc1 | 87.38% | 0.21 mL | 88.29% | 0.2 mL | – | inactive | 17.6 mm | inactive | 50 µg/mL (≈ 109 µM) | 82.64% | 0.14 mL | 0.22 mL | 88.43% | – | 17.6 mm | 25 µg/mL (≈ 54.6 µM) | 25 µg/mL (≈ 54.6 µM) | 50 µg/mL (≈ 109 µM) | 21 mm | 20.6 mm | –
4 | COc1ccc(-c2nn(-c3ccccc3)cc2-c2nc(-c3ccccc3)c(C(=O)O)s2)cc1 | 81.98% | 0.16 mL | 87.76% | 0.21 mL | – | inactive | 16.3 mm | inactive | 50 µg/mL (≈ 110 µM) | 86.77% | 0.2 mL | 0.23 mL | 87.86% | – | 18.6 mm | 25 µg/mL (≈ 55.1 µM) | 50 µg/mL (≈ 110 µM) | 25 µg/mL (≈ 55.1 µM) | 21.6 mm | 16 mm | –
5 | CCOC(=O)c1sc(-c2cn(-c3ccccc3)nc2-c2ccc(F)cc2)nc1-c1ccc(F)cc1 | 85.58% | 0.25 mL | 87.76% | 0.32 mL | inactive | inactive | 22.6 mm | inactive | 12.5 µg/mL (≈ 25.6 µM) | 79.33% | 0.16 mL | 0.23 mL | 81.5% | inactive | 15.6 mm | – | – | 50 µg/mL (≈ 103 µM) | – | – | MIC (Saccharomyces cerevisiae [7]): inactive; diameter of the inhibition zone (DIZ) (Saccharomyces cerevisiae [16]): inactive
6 | O=C(O)c1sc(-c2cn(-c3ccccc3)nc2-c2ccccc2)nc1-c1ccc(F)cc1 | 82.88% | 0.16 mL | 90.95% | 0.18 mL | – | inactive | 25.6 mm | inactive | 12.5 µg/mL (≈ 28.3 µM) | 86.77% | 0.19 mL | 0.17 mL | 89.59% | – | 18.3 mm | 12.5 µg/mL (≈ 28.3 µM) | 25 µg/mL (≈ 56.6 µM) | 25 µg/mL (≈ 56.6 µM) | 24.6 mm | 20.6 mm | –
7 | COc1ccc(-c2nn(-c3ccccc3)cc2-c2nc(-c3ccc(OC)cc3)c(C(=O)O)s2)cc1 | 82.88% | 0.24 mL | 89.89% | 0.2 mL | – | inactive | 13 mm | inactive | 50 µg/mL (≈ 103 µM) | 86.77% | 0.13 mL | 0.19 mL | 88.43% | – | 16.3 mm | 50 µg/mL (≈ 103 µM) | 50 µg/mL (≈ 103 µM) | 50 µg/mL (≈ 103 µM) | 16.3 mm | 13.3 mm | –
8 | COc1ccc(-c2nc(-c3cn(-c4ccccc4)nc3-c3ccc(Cl)cc3)sc2C(=O)O)cc1 | 86.48% | 0.19 mL | 88.82% | 0.16 mL | inactive | inactive | 25.3 mm | inactive | 12.5 µg/mL (≈ 25.6 µM) | 89.29% | 0.15 mL | 0.21 mL | 90.75% | inactive | 18.3 mm | – | 50 µg/mL (≈ 102 µM) | 25 µg/mL (≈ 51.2 µM) | – | 12 mm | –
9 | O=C(O)c1sc(-c2cn(-c3ccccc3)nc2-c2ccc(F)cc2)nc1-c1ccccc1 | 87.38% | 0.22 mL | 90.42% | 0.37 mL | – | inactive | 21.3 mm | inactive | 25 µg/mL (≈ 56.6 µM) | 81.81% | 0.14 mL | 0.18 mL | 78.61% | – | 18.3 mm | 25 µg/mL (≈ 56.6 µM) | 50 µg/mL (≈ 113 µM) | 25 µg/mL (≈ 56.6 µM) | 20.3 mm | > 20 mm | –
10 | CCOC(=O)c1sc(-c2cn(-c3ccccc3)nc2-c2ccc(F)cc2)nc1-c1ccc(Cl)cc1 | 84.68% | 0.22 mL | 86.17% | 0.34 mL | inactive | inactive | 17.6 mm | inactive | 50 µg/mL (≈ 99.2 µM) | 81.81% | 0.17 mL | 0.26 mL | 80.34% | inactive | – | – | – | – | – | – | diameter of the inhibition zone (DIZ) (Bacillus subtilis [1]): inactive; MIC (Saccharomyces cerevisiae [7]): inactive; MIC (Bacillus subtilis [12]): inactive; diameter of the inhibition zone (DIZ) (Saccharomyces cerevisiae [16]): inactive
11 | O=C(O)c1sc(-c2cn(-c3ccccc3)nc2-c2ccccc2)nc1-c1ccccc1 | 87.37% | 0.39 mL | 84.04% | 0.28 mL | – | inactive | 17.6 mm | inactive | 50 µg/mL (≈ 118 µM) | 67.76% | 0.24 mL | 0.3 mL | 83.81% | – | 18.6 mm | 12.5 µg/mL (≈ 29.5 µM) | 12.5 µg/mL (≈ 29.5 µM) | 25 µg/mL (≈ 59 µM) | 24.6 mm | 23.6 mm | –
12 | CCOC(=O)c1sc(-c2cn(-c3ccccc3)nc2-c2ccc(OC)cc2)nc1-c1ccccc1 | 90.19% | 0.2 mL | 90.95% | 0.33 mL | inactive | inactive | 18.3 mm | inactive | 25 µg/mL (≈ 51.9 µM) | 83.47% | 0.11 mL | 0.24 mL | 80.92% | inactive | 15 mm | – | – | 50 µg/mL (≈ 104 µM) | – | – | MIC (Saccharomyces cerevisiae [7]): inactive; diameter of the inhibition zone (DIZ) (Saccharomyces cerevisiae [16]): inactive
